Assay type in all cases: cell-based
One experiment has as its target T1, hGIPR (Homo sapiens, UniProt P48546).
T1 construct: expressed in transfected cells
T1 sequence (P48546 22-466): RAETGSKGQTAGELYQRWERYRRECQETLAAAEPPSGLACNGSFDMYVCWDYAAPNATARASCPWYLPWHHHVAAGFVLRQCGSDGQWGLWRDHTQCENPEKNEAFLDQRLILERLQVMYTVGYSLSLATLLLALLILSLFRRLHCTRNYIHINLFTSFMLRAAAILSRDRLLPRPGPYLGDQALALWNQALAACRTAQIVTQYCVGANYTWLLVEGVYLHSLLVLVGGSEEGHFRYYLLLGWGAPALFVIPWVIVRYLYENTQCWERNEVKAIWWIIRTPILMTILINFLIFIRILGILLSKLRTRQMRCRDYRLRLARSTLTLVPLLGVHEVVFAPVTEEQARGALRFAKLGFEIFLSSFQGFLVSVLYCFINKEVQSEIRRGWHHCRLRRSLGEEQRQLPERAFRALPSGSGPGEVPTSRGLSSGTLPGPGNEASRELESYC
The experiment is described as follows: Functional cAMP formation (HTRF) in HEK-293 clonal cells expressing hGIPR, 0.1% bovine casein, without or with 1.0% human serum albumin. The following applies: for EC50: cAMP, 0.1% bovine casein (no human serum albumin), geometric mean, read-out: hGIPR EC50, nM (SEM, n). An outline of the steps: (§1)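 Cells were stimulated with peptide for 30 min at 37° C, then intracellular cAMP was measured by competitive HTRF (665/620 nm ratio) and converted to nM using a cAMP standard curve. Relative EC50 and Emax came from four-parameter logistic fits of percent maximal response against peptide concentration.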
A general note: Cyclic AMP is a second messenger, typically raised through Gs and lowered through Gi signalling.

In the next experiment the target is T2, hGCGR (Homo sapiens, UniProt P47871).
T2 construct: expressed in transfected cells
Nature of the experiment: Functional cAMP formation (HTRF) in HEK-293 clonal cells expressing hGCGR, 0.1% bovine casein, without or with 1.0% human serum albumin. Particulars: geometric mean. An outline of the steps: as §1

For a further experiment, the target named is hGLP-1R (Homo sapiens, UniProt P43220). The experiment is described as follows: Functional cAMP formation (HTRF) in HEK-293 clonal cells expressing hGLP-1R, 0.1% bovine casein, without or with 1.0% human serum albumin. On the set-up: expressed in transfected cells. Particulars: for EC50: geometric mean; for Emax: read-out: hGLP-1R Emax, % ± SEM. In short, it runs like this:
as §1

The mark [1] stands for this setting: 0.1% bovine casein and 1.0% human serum albumin, 37° C., read-out: hGCGR EC50, nM (SEM, n).
Setting [2] is: HEK293, 0.1% bovine casein and 1.0% human serum albumin, 37° C., percent of maximal response to GLP-1(7-36)NH2.
The mark [3] stands for this setting: HEK293, percent of maximal response to GIP(1-42)NH2, 37° C., 0.1% bovine casein, arithmetic mean, read-out: hGIPR Emax, % ± SEM.
The mark [4] stands for this setting: cAMP, incubated at 37° C., 0.1% bovine casein (no human serum albumin), read-out: hGCGR EC50, nM (SEM, n).

Molecules are shown by their SMILES. Read-outs that look alike come from different tables or passages of the source. *1 amine or outer side, *2 acyl side, *3 side chain or, on linkers, in order; H or OH if unused. Where a SMILES comes first, the peptide text is derived from it. Side-chain parts run from the residue outwards. [ ]: non-standard residue; d: D form. The star is where a group is joined. αMePhe(2-F) = C[C@](N)(Cc1ccccc1F)C(=O)O; γGlu = O=C(O)[C@H](CCC(=O)[*:2])N[*:1]; C14 diacid = O=C(O)CCCCCCCCCCCCC(=O)*; αMeF = C[C@](N)(Cc1ccccc1)C(=O)O; 4Pal = N[C@@H](Cc1ccncc1)C(=O)O; αMeL = CC(C)C[C@](C)(N)C(=O)O; Orn = NCCC[C@H](N)C(=O)O; AEEA = NCCOCCOCC(=O)O; Aib = CC(C)(N)C(=O)O

Chain of hGLP-1R (P43220 24-463): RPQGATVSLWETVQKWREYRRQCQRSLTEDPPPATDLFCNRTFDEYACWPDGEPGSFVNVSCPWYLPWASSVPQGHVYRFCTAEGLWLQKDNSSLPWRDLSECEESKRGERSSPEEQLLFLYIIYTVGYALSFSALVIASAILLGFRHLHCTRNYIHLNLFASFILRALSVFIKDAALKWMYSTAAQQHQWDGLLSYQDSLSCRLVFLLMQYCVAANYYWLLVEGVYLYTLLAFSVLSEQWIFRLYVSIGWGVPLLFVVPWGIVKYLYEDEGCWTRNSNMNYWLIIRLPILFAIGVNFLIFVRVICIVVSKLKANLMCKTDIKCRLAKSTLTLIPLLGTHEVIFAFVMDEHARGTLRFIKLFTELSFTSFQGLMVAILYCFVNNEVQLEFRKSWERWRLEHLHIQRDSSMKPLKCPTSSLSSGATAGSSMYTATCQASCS
T2 sequence (P47871 26-477): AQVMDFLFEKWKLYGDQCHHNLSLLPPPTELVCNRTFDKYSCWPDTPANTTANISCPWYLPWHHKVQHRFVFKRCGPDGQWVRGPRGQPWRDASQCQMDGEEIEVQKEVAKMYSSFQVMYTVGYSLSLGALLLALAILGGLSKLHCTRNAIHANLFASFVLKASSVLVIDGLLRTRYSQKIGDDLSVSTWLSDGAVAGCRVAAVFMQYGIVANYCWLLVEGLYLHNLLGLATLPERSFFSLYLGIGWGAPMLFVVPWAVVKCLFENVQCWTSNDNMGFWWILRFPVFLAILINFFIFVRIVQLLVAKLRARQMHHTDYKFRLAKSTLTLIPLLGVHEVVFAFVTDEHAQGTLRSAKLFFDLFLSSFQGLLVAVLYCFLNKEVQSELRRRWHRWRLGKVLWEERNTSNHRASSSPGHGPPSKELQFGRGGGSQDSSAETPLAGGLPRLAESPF

Usually Emax stands for the greatest response seen or fitted, relative to the assay's reference. The term EC50 denotes the concentration needed to bring the measured effect to its halfway point. `CC[C@H](C)[C@H](NC(=O)[C@H](CC(C)C)NC(=O)[C@](C)(Cc1ccc(O)cc1)NC(=O)[C@@H](CCC(=O)O)NC(=O)[C@@H](NC(=O)[C@H](Cc1ccccc1)NC(=O)[C@H](CCC(=O)O)NC(=O)C(C)(C)NC(=O)[C@H](CCC(N)=O)NC(=O)[C@H](C)NC(=O)[C@H](CCCCNC(=O)COCCOCCNC(=O)COCCOCCNC(=O)CC[C@H](NC(=O)CCCCCCCOc1ccc(C(=O)O)cc1)C(=O)O)NC(=O)[C@H](CCCN)NC(=O)[C@H](CC(=O)O)NC(=O)[C@H](CC(C)C)NC(=O)[C@](C)(CC(C)C)NC(=O)[C@@H](NC(=O)[C@H](CO)NC(=O)[C@H](Cc1ccncc1)NC(=O)[C@H](CC(=O)O)NC(=O)[C@H](CO)NC(=O)[C@@H](NC(=O)[C@](C)(Cc1ccccc1F)NC(=O)[C@@H](NC(=O)CNC(=O)[C@H](CCC(=O)O)NC(=O)C(C)(C)NC(=O)[C@@H](N)Cc1ccc(O)cc1)[C@@H](C)O)[C@@H](C)O)[C@@H](C)CC)[C@@H](C)CC)C(=O)N[C@@H](CCC(=O)O)C(=O)NCC(=O)NCC(=O)N[C@@H](CCCCNC(=O)COCCOCCNC(=O)COCCOCCNC(=O)CC[C@H](NC(=O)CCCCCCCOc1ccc(C(=O)O)cc1)C(=O)O)C(=O)N[C@@H](CO)C(=O)N[C@@H](CO)C(=O)NCC(=O)N[C@@H](C)C(=O)N1CCC[C@H]1C(=O)N1CCC[C@H]1C(=O)N1CCC[C@H]1C(=O)N[C@@H](CO)C(N)=O` [Example 126]: the Emax on hGIPR (HEK293, read-out: hGIPR Emax, % ± SEM, percent of maximal response to GIP(1-42)NH2, 37° C., 0.1% bovine casein, arithmetic mean) was determined as 91.8%. Also, the EC50 at hGCGR (hGCGR EC50, nM (SEM, n), cAMP, incubated at 37° C., 0.1% bovine casein (no human serum albumin)) was over 9950 nM; at hGLP-1R (hGLP-1R EC50, nM (SEM, n), cAMP, incubated at 37° C., 0.1% bovine casein (no human serum albumin)) it was 1.69 nM.

In the case of `CC[C@H](C)[C@H](NC(=O)[C@H](CCCN)NC(=O)[C@H](CC(=O)O)NC(=O)[C@H](CC(C)C)NC(=O)[C@](C)(CC(C)C)NC(=O)[C@@H](NC(=O)C(C)(C)NC(=O)[C@@H](NC(=O)[C@H](CC(=O)O)NC(=O)[C@H](CO)NC(=O)[C@@H](NC(=O)[C@](C)(Cc1ccccc1F)NC(=O)[C@@H](NC(=O)CNC(=O)[C@H](CCC(=O)O)NC(=O)C(C)(C)NC(=O)[C@@H](N)Cc1ccc(O)cc1)[C@@H](C)O)[C@@H](C)O)C(C)C)[C@@H](C)CC)C(=O)N[C@@H](C)C(=O)N[C@@H](CCC(N)=O)C(=O)NC(C)(C)C(=O)N[C@@H](CCC(=O)O)C(=O)N[C@@H](Cc1ccccc1)C(=O)N[C@H](C(=O)N[C@@H](CCCCNC(=O)COCCOCCNC(=O)COCCOCCNC(=O)CC[C@H](NC(=O)CCCCCCCCCCCCC(=O)O)C(=O)O)C(=O)N[C@@](C)(Cc1ccc(O)cc1)C(=O)N[C@@H](CC(C)C)C(=O)N[C@H](C(=O)N[C@@H](CCCCNC(=O)COCCOCCNC(=O)COCCOCCNC(=O)CC[C@H](NC(=O)CCCCCCCCCCCCC(=O)O)C(=O)O)C(=O)NCC(=O)NCC(=O)N1CCC[C@H]1C(=O)N[C@@H](CO)C(=O)N[C@@H](CO)C(=O)NCC(=O)N[C@@H](C)C(=O)N1CCC[C@H]1C(=O)N1CCC[C@H]1C(=O)N1CCC[C@H]1C(=O)N[C@@H](CO)C(N)=O)[C@@H](C)CC)[C@@H](C)CC` [Example 304], the Emax on hGIPR (HEK293, cAMP, 37° C., 0.1% bovine casein, percent of maximal response to GIP(1-42)NH2, arithmetic mean, read-out: hGIPR Emax, % ± SEM) is 110%; at hGLP-1R (setting [2]) it was 98.3%. Further, the EC50 at hGIPR (37° C.) is 0.047 nM; at hGCGR (setting [1]), over 9950 nM; at hGCGR (cAMP, 37° C., 0.1% bovine casein (no human serum albumin), read-out: hGCGR EC50, nM (SEM, n)), over 9950 nM; on hGLP-1R (cAMP, 37° C., 0.1% bovine casein (no human serum albumin), read-out: hGLP-1R EC50, nM (SEM, n)), 0.474 nM.

For the compound `CC[C@H](C)[C@H](NC(=O)[C@H](CC(C)C)NC(=O)[C@](C)(Cc1ccc(O)cc1)NC(=O)[C@@H](CCC(=O)O)NC(=O)[C@@H](NC(=O)[C@H](Cc1ccccc1)NC(=O)[C@H](CCC(=O)O)NC(=O)C(C)(C)NC(=O)[C@H](CCC(N)=O)NC(=O)[C@H](C)NC(=O)[C@H](CCCCNC(=O)COCCOCCNC(=O)COCCOCCNC(=O)CC[C@H](NC(=O)CCCCCCCCCCCCC(=O)O)C(=O)O)NC(=O)[C@H](CCCN)NC(=O)[C@H](CC(=O)O)NC(=O)[C@H](CC(C)C)NC(=O)[C@](C)(CC(C)C)NC(=O)[C@@H](NC(=O)[C@H](CN)NC(=O)[C@H](Cc1ccc(O)cc1)NC(=O)[C@H](CC(=O)O)NC(=O)[C@H](CO)NC(=O)[C@@H](NC(=O)[C@](C)(Cc1ccccc1F)NC(=O)[C@@H](NC(=O)CNC(=O)[C@H](CCC(=O)O)NC(=O)C(C)(C)NC(=O)[C@@H](N)Cc1ccc(O)cc1)[C@@H](C)O)[C@@H](C)O)[C@@H](C)CC)[C@@H](C)CC)C(=O)N[C@@H](CCC(=O)O)C(=O)NCC(=O)NCC(=O)N[C@@H](CCCCNC(=O)COCCOCCNC(=O)COCCOCCNC(=O)CC[C@H](NC(=O)CCCCCCCCCCCCC(=O)O)C(=O)O)C(=O)N[C@@H](CO)C(=O)N[C@@H](CO)C(=O)NCC(=O)N[C@@H](C)C(=O)N1CCC[C@H]1C(=O)N1CCC[C@H]1C(=O)N1CCC[C@H]1C(=O)N[C@@H](CO)C(N)=O` [Example 200], the Emax at hGIPR (HEK293, 0.1% bovine casein and 1.0% human serum albumin, 37° C., percent of maximal response to GIP(1-42)NH2, read-out: hGIPR Emax, % ± SEM) worked out at 83.7%; at hGIPR (setting [3]), 96.3 ± 2.76%; at hGLP-1R (setting [2]) it was 97.4%. Also, the EC50 is over 9950 nM on hGCGR (setting [1]); over 9950 nM on hGCGR (setting [4]); 26.6 nM at hGLP-1R (0.1% bovine casein and 1.0% human serum albumin, 37° C., read-out: hGLP-1R EC50, nM (SEM, n)).

As to `CC[C@H](C)[C@H](NC(=O)[C@H](CC(C)C)NC(=O)[C@](C)(Cc1ccccc1)NC(=O)[C@H](CCC(=O)O)NC(=O)[C@@H](NC(=O)[C@H](Cc1ccccc1)NC(=O)[C@H](CCC(=O)O)NC(=O)C(C)(C)NC(=O)[C@H](CCC(N)=O)NC(=O)[C@H](C)NC(=O)[C@H](CCCCNC(=O)COCCOCCNC(=O)COCCOCCNC(=O)CC[C@H](NC(=O)CCCCCCCCCCCCC(=O)O)C(=O)O)NC(=O)[C@H](CCCN)NC(=O)[C@H](CC(=O)O)NC(=O)[C@H](CC(C)C)NC(=O)[C@](C)(CC(C)C)NC(=O)[C@@H](NC(=O)[C@H](CO)NC(=O)[C@H](Cc1ccncc1)NC(=O)[C@H](CC(=O)O)NC(=O)[C@H](CO)NC(=O)[C@@H](NC(=O)[C@](C)(Cc1ccccc1F)NC(=O)[C@@H](NC(=O)CNC(=O)[C@H](CCC(=O)O)NC(=O)C(C)(C)NC(=O)[C@@H](N)Cc1ccc(O)cc1)[C@@H](C)O)[C@@H](C)O)[C@@H](C)CC)[C@@H](C)CC)C(=O)N[C@@H](CCC(=O)O)C(=O)NCC(=O)NCC(=O)N[C@@H](CCCCNC(=O)COCCOCCNC(=O)COCCOCCNC(=O)CC[C@H](NC(=O)CCCCCCCCCCCCC(=O)O)C(=O)O)C(=O)N[C@@H](CO)C(=O)N[C@@H](CO)C(=O)NCC(=O)N[C@@H](C)C(=O)N1CCC[C@H]1C(=O)N1CCC[C@H]1C(=O)N1CCC[C@H]1C(=O)N[C@@H](CO)C(N)=O` [Example 159] (H-Y[Aib]EGT[αMePhe(2-F)]TSD[4Pal]SI[αMeL]LD[Orn]K([AEEA-AEEA-γGlu-C14 diacid])AQ[Aib]EFIE[αMeF]LIEGGK([AEEA-AEEA-γGlu-C14 diacid])SSGAPPPS-NH2), the Emax on hGIPR (setting [3]) is 95.3%; at hGLP-1R (HEK293, percent of maximal response to GLP-1(7-36)NH2, 37° C., 0.1% bovine casein, arithmetic mean) it was 89.4%. Besides, the EC50 at hGIPR (incubated at 37° C.) was 0.0198 nM; at hGCGR (setting [4]) it was over 9950 nM.
